Test system: LG0567-F671-PDC complex spheroids viability
Experiment: Anticancer human tumor LG0567-F671-PDC patient-derived lung adenocarcinoma cell line growth inhibition [RAS]
Conditions: for viability, T/C: stronger effect = lower value
Outline: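 Tumour cells grown as complex spheroids with HUVEC endothelial cells and mesenchymal stem cells, treated with RAS pathway inhibitor combinations. Each agent spans half-log steps from near clinical Cmax, or 10 microM where Cmax is unknown.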
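Further: spheroids exposed to compound for seven days before readout.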
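Wherever IC50 is given: luminescence signal used as a proxy for viable cells.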

Question: Which results are given for CC1(O)CCCC1n1c(=O)c(C(F)F)cc2cnc(NC3CCN(S(C)(=O)=O)CC3)nc21 (stereo not given) + CCn1c(-c2cc(N3CCN(C)CC3)cnc2C(C)OC)c2c3cc(ccc31)-c1csc(n1)CC(NC(=O)C1CC1C)C(=O)N1CCCC(N1)C(=O)OCC(C)(C)C2?
Answer: IC50 (curve of first compound, second compound 0.000949 µM): < 31.6 nM; IC50 (curve of first compound, second compound 0.003 µM): < 31.6 nM; IC50 (curve of first compound, second compound 0.00949 µM): < 31.6 nM; IC50 (curve of first compound, second compound 0.03 µM): < 31.6 nM; IC50 (curve of first compound, second compound 0.0949 µM): < 31.6 nM; IC50 (curve of first compound, second compound 0.3 µM): < 31.6 nM; viability, T/C (second compound 0.000949 µM, first compound 0.0316 µM): 29.6%; viability, T/C (second compound 0.000949 µM, first compound 0.1 µM): 27.7%; viability, T/C (second compound 0.000949 µM, first compound 0.316 µM): 34.2%; viability, T/C (second compound 0.000949 µM, first compound 1 µM): 35.2%; viability, T/C (second compound 0.000949 µM, first compound 3.16 µM): 36.3%; viability, T/C (second compound 0.000949 µM, first compound 10 µM): 24.7%; viability, T/C (second compound 0.003 µM, first compound 0.0316 µM): 11.8%; viability, T/C (second compound 0.003 µM, first compound 0.1 µM): 15.6%; viability, T/C (second compound 0.003 µM, first compound 0.316 µM): 16.7%; viability, T/C (second compound 0.003 µM, first compound 1 µM): 17.6%; viability, T/C (second compound 0.003 µM, first compound 3.16 µM): 18.6%; viability, T/C (second compound 0.003 µM, first compound 10 µM): 14.1%; viability, T/C (second compound 0.00949 µM, first compound 0.0316 µM): 7.99%; viability, T/C (second compound 0.00949 µM, first compound 0.1 µM): 8.49%; viability, T/C (second compound 0.00949 µM, first compound 0.316 µM): 10.3%; viability, T/C (second compound 0.00949 µM, first compound 1 µM): 10.8%; viability, T/C (second compound 0.00949 µM, first compound 3.16 µM): 11.8%; viability, T/C (second compound 0.00949 µM, first compound 10 µM): 8.83%; viability, T/C (second compound 0.03 µM, first compound 0.0316 µM): 4.53%; viability, T/C (second compound 0.03 µM, first compound 0.1 µM): 5.49%; viability, T/C (second compound 0.03 µM, first compound 0.316 µM): 6.91%; viability, T/C (second compound 0.03 µM, first compound 1 µM): 7.53%; viability, T/C (second compound 0.03 µM, first compound 3.16 µM): 8.07%; viability, T/C (second compound 0.03 µM, first compound 10 µM): 5.96%; viability, T/C (second compound 0.0949 µM, first compound 0.0316 µM): 4.61%; viability, T/C (second compound 0.0949 µM, first compound 0.1 µM): 4.51%; viability, T/C (second compound 0.0949 µM, first compound 0.316 µM): 5.52%; viability, T/C (second compound 0.0949 µM, first compound 1 µM): 6.15%; viability, T/C (second compound 0.0949 µM, first compound 3.16 µM): 6.66%; viability, T/C (second compound 0.0949 µM, first compound 10 µM): 5%; viability, T/C (second compound 0.3 µM, first compound 0.0316 µM): 3.25%; viability, T/C (second compound 0.3 µM, first compound 0.1 µM): 3.76%; viability, T/C (second compound 0.3 µM, first compound 0.316 µM): 4.31%; viability, T/C (second compound 0.3 µM, first compound 1 µM): 5.52%; viability, T/C (second compound 0.3 µM, first compound 3.16 µM): 5.43%; viability, T/C (second compound 0.3 µM, first compound 10 µM): 4.68%

Question: What does the source list for CCc1c2c(nc3ccc(O)cc13)-c1cc3c(c(=O)n1C2)COC(=O)[C@]3(O)CC?
Answer: viability, T/C (compound 0.000949 µM): 93.3% [middle of 4 runs]; viability, T/C (compound 0.003 µM): 79% [middle of 4 runs]; viability, T/C (compound 0.00949 µM): 65.1% [middle of 4 runs]; viability, T/C (compound 0.03 µM): 48.5% [middle of 4 runs]; viability, T/C (compound 0.0949 µM): 27.1% [middle of 4 runs]; viability, T/C (compound 0.3 µM): 7.59% [middle of 4 runs]; IC50 (curve of compound): 26.9 nM [middle of 4 runs]

Question: Which results are given for C=CC(=O)Nc1cc(Nc2nccc(-c3cn(C)c4ccccc34)n2)c(OC)cc1N(C)CCN(C)C?
Answer: viability, T/C (compound 0.01 µM): 92.5% [middle of 4 runs]; viability, T/C (compound 0.0316 µM): 86% [middle of 4 runs]; viability, T/C (compound 0.1 µM): 68.7% [middle of 4 runs]; viability, T/C (compound 0.316 µM): 42.7% [middle of 4 runs]; viability, T/C (compound 1 µM): 23.2% [middle of 4 runs]; IC50 (curve of compound): 225 nM [middle of 4 runs]
